Target: human active recombinant p38α-6His tagged (Homo sapiens, UniProt Q16539)
Test: P38 Alpha Enzyme Assay (AlphaScreen, biotinylated-ATF2 substrate);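 further: 0.5 nM final p38α, reaction started with ATP and run 45 min at 37 °C, phospho-ATF2 read by antibody-based AlphaScreen, background wells quenched with EDTA before ATP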
Format: biochemical
Settings: p38 alpha enzyme inhibition; means of replicate determinations; 4 h pre-incubation at 37° C.; SD of assay 0.2-0.3 log units

Chain of human active recombinant p38α-6His tagged (Q16539 whole entry): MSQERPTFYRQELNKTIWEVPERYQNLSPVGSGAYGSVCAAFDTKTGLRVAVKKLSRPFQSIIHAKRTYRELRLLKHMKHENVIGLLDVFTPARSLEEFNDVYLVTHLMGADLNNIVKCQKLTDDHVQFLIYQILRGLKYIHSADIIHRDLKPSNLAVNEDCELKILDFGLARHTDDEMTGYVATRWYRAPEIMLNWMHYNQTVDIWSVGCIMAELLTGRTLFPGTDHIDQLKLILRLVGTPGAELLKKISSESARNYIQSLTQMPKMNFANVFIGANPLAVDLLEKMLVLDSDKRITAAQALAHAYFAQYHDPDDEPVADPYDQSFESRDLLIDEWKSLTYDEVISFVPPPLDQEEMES

| pIC50 | SMILES |
| --- | --- |
| 9.9 | CNCCOc1ccc(F)cc1C1(Nc2nccn(-c3cc(C(=O)NC4CC4)ccc3C)c2=O)CC1 [Example 278, N-Cyclopropyl-3-[3-[[1-[5-fluoro-2-[2-(methylamino)ethoxy]phenyl]cyclopropyl]amino]-2-oxo-1(2H)-pyrazinyl]-4-methyl-benzamide] |
| 9.1 | Cc1ccc(C(=O)NC2CC2)cc1-n1ccnc(NC2(c3ccccc3OCCN3CCN(CCO)CC3)CC2)c1=O [Example 232, N-Cyclopropyl-3-[3-[[1-[2-[2-[4-(2-hydroxyethyl)-1-piperazinyl]ethoxy]phenyl]cyclopropyl]amino]-2-oxo-1(2H)-pyrazinyl]-4-methyl-benzamide] |
| 7.9 | Cc1ccc(C(=O)NC2CC2)cc1-n1ccnc(N[C@H](CO)c2ccccc2)c1=O [Example 80, N-Cyclopropyl-3-[3-[[(1S)-2-hydroxy-1-phenylethyl]amino]-2-oxo-1(2H)-pyrazinyl]-4-methyl-benzamide] |
| 7 | Cc1ccc(C(=O)NC2CC2)cc1-n1ccnc(NC[C@@H](C)c2ccccc2)c1=O [Example 58, N-Cyclopropyl-4-methyl-3-[2-oxo-3-[[(2S)-2-phenylpropyl]amino]-1(2H)-pyrazinyl]-benzamide] |
| 10 | CNC[C@H](O)COc1ccccc1C(C)(C)Nc1nccn(-c2cc(C(=O)NC3CC3)cc(F)c2C)c1=O [Example 310, N-Cyclopropyl-3-fluoro-5-[3-{[1-(2-{[(2S)-2-hydroxy-3-(methylamino)propyl]oxy}phenyl)-1-methylethyl]amino}-2-oxopyrazin-1(2H)-yl]-4-methylbenzamide] |
| 10.4 | Cc1c(F)cc(C(=O)NC2CC2)cc1-n1ccnc(NC(C)(C)c2ccccc2OCCNC[C@H](C)O)c1=O [Example 258, N-Cyclopropyl-3-fluoro-5-[3-[[1-[2-[2-[[(2S)-2-hydroxypropyl]amino]ethoxy]phenyl]-1-methylethyl]amino]-2-oxo-1(2H)-pyrazinyl]-4-methyl-benzamide] |
| 10 | Cc1ccc(C(=O)NC2CC2)cc1-n1ccnc(NC2(c3ccccc3OC[C@@H](O)CNCCO)CC2)c1=O [Example 302, N-Cyclopropyl-3-[3-({1-[2-({(2S)-2-hydroxy-3-[(2-hydroxyethyl)amino]propyl}oxy)phenyl]cyclopropyl}amino)-2-oxopyrazin-1(2H)-yl]-4-methylbenzamide] |
| 7.9 | Cc1ccc(C(=O)NC2CC2)cc1-n1ccnc(N[C@@H](c2cccc3ccccc23)[C@@H](C)CN2CCCC2)c1=O [Example 144, N-Cyclopropyl-4-methyl-3-[3-[[(1R,2S)-2-methyl-1-(1-naphthalenyl)-3-(1-pyrrolidinyl)propyl]amino]-2-oxo-1(2H)-pyrazinyl]-benzamide] |
| 9.5 | COCCNCCOc1ccccc1C(C)(C)Nc1nccn(-c2cc(C(=O)NC3CC3)ccc2C)c1=O [Example 210, N-Cyclopropyl-3-[3-[[1-[2-[2-[(2-methoxyethyl)amino]ethoxy]phenyl]-1-methylethyl]amino]-2-oxo-1(2H)-pyrazinyl]-4-methyl-benzamide] |
| 5.5 | Cc1ccc(C(=O)NC2CC2)cc1-n1ccnc(NCc2ccc(S(C)(=O)=O)cc2)c1=O [Example 25, N-Cyclopropyl-4-methyl-3-[3-[[[4-(methylsulfonyl)phenyl]methyl]amino]-2-oxo-1(2H)-pyrazinyl]-benzamide] |
| 8.4 | CCc1ccc(C(=O)NC2CC2)cc1-n1ccnc(NC(C)(C)c2ccccc2OCCN)c1=O [Example 292, 3-[3-({1-[2-(2-Aminoethoxy)phenyl]-1-methylethyl}amino)-2-oxopyrazin-1(2H)-yl]-N-cyclopropyl-4-ethylbenzamide] |
| 10.1 | CCNC[C@H](O)COc1ccccc1C1(Nc2nccn(-c3cc(C(=O)NC4CC4)ccc3C)c2=O)CC1 [Example 303, N-cyclopropyl-3-[3-{[1-(2-{[(2S)-3-(ethylamino)-2-hydroxypropyl]oxy}phenyl)cyclopropyl]amino}-2-oxopyrazin-1(2H)-yl]-4-methylbenzamide] |
| 10.2 | COCCNCCOc1ccccc1C(C)(C)Nc1nccn(-c2cc(C(=O)NC3CC3)cc(F)c2C)c1=O [Example 255, N-Cyclopropyl-3-fluoro-5-[3-[[1-[2-[2-[(2-methoxyethyl)amino]ethoxy]phenyl]-1-methylethyl]amino]-2-oxo-1(2H)-pyrazinyl]-4-methyl-benzamide] |
| 9.8 | Cc1ccc(C(=O)NC2CC2)cc1-n1ccnc(N[C@@H](c2ccccc2)[C@@H](C)CN2CCNC[C@H]2C)c1=O [Example 187, N-Cyclopropyl-4-methyl-3-[3-[[(1R,2S)-2-methyl-3-[(2R)-2-methyl-1-piperazinyl]-1-phenylpropyl]amino]-2-oxo-1(2H)-pyrazinyl]-benzamide] |
| 8.5 | CCNCCOc1ccccc1C(C)(C)Nc1nccn(-c2cc(C(=O)NC3CC3)ccc2CC)c1=O [Example 290, N-Cyclopropyl-4-ethyl-3-{3-[(1-{2-[2-(ethylamino)ethoxy]phenyl}-1-methylethyl)amino]-2-oxopyrazin-1(2H)-yl}benzamide] |
| 10 | Cc1ccc(C(=O)NC2CC2)cc1-n1ccnc(NC2(c3ccccc3OCCNC[C@H](C)O)CC2)c1=O [Example 230, N-Cyclopropyl-3-[3-[[1-[2-[2-[[(2S)-2-hydroxypropyl]amino]ethoxy]phenyl]cyclopropyl]amino]-2-oxo-1(2H)-pyrazinyl]-4-methyl-benzamide] |

| pIC50 | SMILES |
| --- | --- |
| 9 | Cc1ccc(C(=O)NC2CC2)cc1-n1ccnc(N[C@@H](c2ccccc2)[C@@H](C)CNCC(C)(C)C)c1=O [Example 157, N-Cyclopropyl-3-[3-[[(1R,2S)-3-[(2,2-dimethylpropyl)amino]-2-methyl-1-phenylpropyl]amino]-2-oxo-1(2H)-pyrazinyl]-4-methyl-benzamide] |
| 6.6 | Cc1ccc(C(=O)NC2CC2)cc1-n1ccnc(-c2ccccc2)c1=O [Example 114, N-Cyclopropyl-4-methyl-3-(2-oxo-3-phenyl-1(2H)-pyrazinyl)-benzamide] |
| 7.7 | Cc1ccc(C(=O)NC2CC2)cc1-n1ccnc(NCc2ccccc2Cl)c1=O [Example 129, 3-[3-[[(2-Chlorophenyl)methyl]amino]-2-oxo-1(2H)-pyrazinyl]-N-cyclopropyl-4-methyl-benzamide] |
| 7.5 | Cc1ccc(C(=O)NC2CC2)cc1-n1ccnc(NCc2ccc(F)cc2)c1=O [Example 33, N-Cyclopropyl-3-[3-[[(4-fluorophenyl)methyl]amino]-2-oxo-1(2H)-pyrazinyl]-4-methyl-benzamide] |
| 10.4 | CNCCOc1ccccc1C(C)(C)Nc1nccn(-c2cc(C(=O)NOC)cc(F)c2C)c1=O [Example 316, 3-Fluoro-N-methoxy-4-methyl-5-{3-[(1-methyl-1-{2-[2-(methylamino)ethoxyl]phenyl}ethyl)amino]-2-oxopyrazin-1(2H)-yl}benzamide] |
| 9.7 | Cc1c(F)cc(C(=O)NC2CC2)cc1-n1ccnc(NC2(c3ccccc3OCCNC[C@@H](C)O)CC2)c1=O [Example 265, N-Cyclopropyl-3-fluoro-5-[3-[[1-[2-[2-[[(2R)-2-hydroxypropyl]amino]ethoxy]phenyl]cyclopropyl]amino]-2-oxo-1(2H)-pyrazinyl]-4-methyl-benzamide] |
| 9.1 | Cc1ccc(C(=O)NC2CC2)cc1-n1ccnc(N[C@@H](c2ccccc2)[C@@H](C)CN2CCC(CO)CC2)c1=O [Example 151, N-Cyclopropyl-3-[3-[[(1R,2S)-3-[4-(hydroxymethyl)-1-piperidinyl]-2-methyl-1-phenylpropyl]amino]-2-oxo-1(2H)-pyrazinyl]-4-methyl-benzamide] |
| 6.4 | COCCCNc1nccn(-c2cc(C(=O)NC3CC3)ccc2C)c1=O [Example 8, N-Cyclopropyl-3-[3-[(3-methoxypropyl)amino]-2-oxo-1(2H)-pyrazinyl]-4-methyl-benzamide] |
| 6.6 | Cc1ccc(C(=O)NC2CC2)cc1-n1ccnc(N2CCOC(c3ccccc3)C2)c1=O (centres unmarked) [Example 67, N-Cyclopropyl-4-methyl-3-[2-oxo-3-(2-phenyl-4-morpholinyl)-1(2H)-pyrazinyl]-benzamide] |
| 10.2 | CCCNCCOc1ccccc1C1(Nc2nccn(-c3cc(C(=O)NC4CC4)ccc3C)c2=O)CC1 [Example 298, N-Cyclopropyl-4-methyl-3-{2-oxo-3-[(1-{2-[2-(propylamino)ethoxy]phenyl}cyclopropyl)amino]pyrazin-1(2H)-yl}benzamide] |
| 7.3 | Cc1ccc(C(=O)NC2CC2)cc1-n1ccnc(N2CCCC(c3ccccc3)C2)c1=O (centres unmarked) [Example 60, N-Cyclopropyl-4-methyl-3-[2-oxo-3-(3-phenyl-1-piperidinyl)-1(2H)-pyrazinyl]-benzamide] |
| 9.6 | CNCCCOc1ccccc1C(C)(C)Nc1nccn(-c2cc(C(=O)NC3CC3)ccc2C)c1=O [Example 164, N-Cyclopropyl-4-methyl-3-[3-[[1-methyl-1-[2-[3-(methylamino)propoxy]phenyl]ethyl]amino]-2-oxo-1(2H)-pyrazinyl]-benzamide] |
| 10.1 | CNCCOc1ccccc1C1(Nc2nccn(-c3cc(C(=O)NOC)ccc3C)c2=O)CC1 [Example 317, N-Methoxy-4-methyl-3-{3-[(1-{2-[2-(methylamino)ethoxy]phenyl}cyclopropyl)amino]-2-oxopyrazin-1(2H)-yl}benzamide] |
| 7.1 | Cc1cccc(CCNc2nccn(-c3cc(C(=O)NC4CC4)ccc3C)c2=O)c1 [Example 73, N-Cyclopropyl-4-methyl-3-[3-[[2-(3-methylphenyl)ethyl]amino]-2-oxo-1(2H)-pyrazinyl]-benzamide] |
| 7.6 | Cc1ccc(C(=O)NC2CC2)cc1-n1ccnc(NCc2ccccc2-c2ccccc2)c1=O [Example 44, 3-[3-[([1,1′-Biphenyl]-2-ylmethyl)amino]-2-oxo-1(2H)-pyrazinyl]-N-cyclopropyl-4-methyl-benzamide] |
| 7.1 | Cc1ccc(C(=O)NC2CC2)cc1-n1ccnc(NC[C@H](C)c2ccccc2)c1=O [Example 57, N-Cyclopropyl-4-methyl-3-[2-oxo-3-[[(2R)-2-phenylpropyl]amino]-1(2H)-pyrazinyl]-benzamide] |
